Usually Ki stands for a measure of affinity in units of concentration, obtained from inhibition or displacement. Higher therefore signals lower affinity.

T1 sequence (Q99558 whole entry): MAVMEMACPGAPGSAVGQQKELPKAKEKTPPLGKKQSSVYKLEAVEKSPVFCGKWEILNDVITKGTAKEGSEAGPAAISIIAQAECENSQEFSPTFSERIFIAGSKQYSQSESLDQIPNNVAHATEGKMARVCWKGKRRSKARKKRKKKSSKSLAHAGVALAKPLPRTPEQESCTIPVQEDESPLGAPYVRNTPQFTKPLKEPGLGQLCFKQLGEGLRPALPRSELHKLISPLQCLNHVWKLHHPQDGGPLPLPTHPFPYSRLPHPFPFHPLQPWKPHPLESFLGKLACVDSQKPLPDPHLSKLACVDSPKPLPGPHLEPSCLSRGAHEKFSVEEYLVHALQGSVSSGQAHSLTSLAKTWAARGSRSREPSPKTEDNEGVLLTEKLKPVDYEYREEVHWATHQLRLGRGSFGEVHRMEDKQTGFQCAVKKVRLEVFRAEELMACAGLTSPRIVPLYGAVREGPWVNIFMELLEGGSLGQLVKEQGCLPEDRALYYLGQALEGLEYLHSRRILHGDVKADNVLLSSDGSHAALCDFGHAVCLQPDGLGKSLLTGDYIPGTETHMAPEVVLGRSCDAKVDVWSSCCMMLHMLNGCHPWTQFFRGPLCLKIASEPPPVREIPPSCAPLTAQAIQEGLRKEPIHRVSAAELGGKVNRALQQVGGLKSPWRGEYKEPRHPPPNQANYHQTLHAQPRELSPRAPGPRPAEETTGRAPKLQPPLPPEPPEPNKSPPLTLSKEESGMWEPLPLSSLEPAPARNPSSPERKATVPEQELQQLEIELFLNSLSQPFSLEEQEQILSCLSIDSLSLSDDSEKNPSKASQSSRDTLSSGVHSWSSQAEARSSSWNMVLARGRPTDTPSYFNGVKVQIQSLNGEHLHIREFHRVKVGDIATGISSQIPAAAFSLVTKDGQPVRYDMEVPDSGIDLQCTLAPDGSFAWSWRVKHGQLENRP

The experiment concerns the target T1, nuclear factor-kappa B (NF-kB)-inducing kinase (NIK) (Homo sapiens, UniProt Q99558).
T1 construct: made in house; host or cells: baculovirus-infected insect cells
Briefly: NIK enzyme inhibition assay (Transcreener ADP fluorescence polarization, NIK ADP-FP). The format is biochemical.
The compound `CN1CC[C@@](O)(C#Cc2cccc(-c3nc(N[C@H]4CCOC4)cc(C(N)=O)n3)c2)C1=O` (single isomer, unassigned) [Example 30] registered a Ki of 23.2 nM.

`NC(=O)c1nc(-c2cccc(C#C[C@]3(O)CCOC3=O)c2)ccc1N` (single isomer, unassigned) [Example 64] returned a Ki of 4.07 nM.

`NC(=O)c1nc(-c2cccc(C#C[C@@]3(O)CCOC3=O)c2)ccc1N` (single isomer, unassigned) [Example 65]: the Ki is 38 nM.

With `CN1CCC(O)(C#Cc2cccc(-c3nc(C(N)=O)ncc3NCC(F)(F)F)c2)C1=O` (stereo in doubt) [Example 147, 4-[3-[2-[(3R)-3-hydroxy-1-methyl-2-oxo-pyrrolidin-3-yl]ethynyl]phenyl]-5-(2,2,2-trifluoroethylamino) pyrimidine-2-carboxamide], the Ki stood at 879 nM.

Compound `CC(=O)N1CCN(c2cc(C(N)=O)nc(-c3cccc(C#C[C@]4(O)CCN(C)C4=O)c3)n2)CC1` [Example 7, 6-(4-acetylpiperazin-1-yl)-2-[3-[2-[(3R)-3-hydroxy-1-methyl-2-oxo-pyrrolidin-3-yl]ethynyl]phenyl]pyrimidine-4-carboxamide] yielded a Ki of 1.25 nM.

The compound `CN1CC[C@@](O)(C#Cc2cccc(-c3nc(C(N)=O)cc(N4CC[C@@H](O)C4)n3)c2)C1=O` [Example 24, 2-[3-[2-[(3R)-3-hydroxy-1-methyl-2-oxo-pyrrolidin-3-yl]ethynyl]phenyl]-6-[(3R)-3-hydroxypyrrolidin-1-yl] pyrimidine-4-carboxamide] came in with a Ki of 1.05 nM.

The compound `CC(C)C[C@H]1CCCN1c1cc(C(N)=O)nc(-c2cccc(C#C[C@]3(O)CCN(C)C3=O)c2)n1` [Example 25, 2-[3-[2-[(3R)-3-hydroxy-1-methyl-2-oxo-pyrrolidin-3-yl]ethynyl]phenyl]-6-[(2R)-2-isobutylpyrrolidin-1-yl] pyrimidine-4-carboxamide] showed a Ki of 5.57 nM.

The compound `Cc1cnc([C@@](C)(O)C#Cc2cccc(-c3nc(C(N)=O)c4ccn(C)c4n3)c2)o1` [Example 54, 2-[3-[(3S)-3-hydroxy-3-(5-methyloxazol-2-yl)but-1-ynyl]phenyl]-7-methyl-pyrrolo[2,3-d] pyrimidine-4-carboxamide] came in with a Ki of 510 nM.

For `CN1CC[C@@](O)(C#Cc2cccc(-c3nc(C(N)=O)cc4nccn34)c2)C1=O` [Example 61, 5-[3-[2-[(3R)-3-hydroxy-1-methyl-2-oxo-pyrrolidin-3-yl]ethynyl]phenyl]imidazo [1,2-c]pyrimidine-7-carboxamide], affinity was put at a Ki of 4.33 nM.

With `CN1CC[C@@](O)(C#Cc2cccc(-c3nccc(C(N)=O)n3)c2F)C1=O` [Example 91, 2-[2-fluoro-3-[2-[(3R)-3-hydroxy-1-methyl-2-oxo-pyrrolidin-3-yl]ethynyl]phenyl]pyrimidine-4-carboxamide], the Ki is 14.4 nM.

Regarding `CN1CC[C@@](O)(C#Cc2cccc(-c3ncc(N4CCOCC4)c(C(N)=O)n3)c2)C1=O` [Example 103, 2-[3-[2-[(3R)-3-hydroxy-1-methyl-2-oxo-pyrrolidin-3-yl]ethynyl]phenyl]-5-morpholino-pyrimidine-4-carboxamide], the affinity corresponds to a Ki of 22.8 nM.

Compound `CC(C)n1ncc2c(-c3cccc(C#C[C@]4(O)CCN(C)C4=O)c3)nc(C(N)=O)cc21` [Example 115, 4-[3-[2-[(3R)-3-hydroxy-1-methyl-2-oxo-pyrrolidin-3-yl]ethynyl]phenyl]-1-isopropyl-pyrazolo[4,3-c]pyridine-6-carboxamide] registered a Ki of 1.77 nM.

The compound `Cc1nnc([C@](C)(O)C#Cc2cccc(-c3nccc(C(N)=O)n3)c2)o1` [Example 138, 2-[3-[(3R)-3-hydroxy-3-(5-methyl-1,3,4-oxadiazol-2-yl)but-1-ynyl]phenyl]pyrimidine-4-carboxamide] displayed a Ki of 60.2 nM.

With `Cc1ccc(C(N)=O)nc1-c1cccc(C#C[C@]2(O)CCN(C)C2=O)c1` [Example 140, 6-[3-[2-[(3R)-3-hydroxy-1-methyl-2-oxo-pyrrolidin-3-yl]ethynyl]phenyl]-5-methyl-pyridine-2-carboxamide], the Ki was 23.8 nM.

In the case of `CN1CC[C@@](O)(C#Cc2cc(-c3nccc(C(N)=O)n3)c3cn[nH]c3c2)C1=O` [Example 156, 2-[6-[2-[(3R)-3-hydroxy-1-methyl-2-oxo-pyrrolidin-3-yl]ethynyl]-1H-indazol-4-yl] pyrimidine-4-carboxamide], the Ki turned out to be 11.3 nM.

Take `CN1CC[C@@](O)(C#Cc2cccc(-c3ccc(F)c(C(N)=O)n3)c2)C1=O` [Example 157, 3-fluoro-6-[3-[2-[(3R)-3-hydroxy-l-methyl-2-oxo-pyrrolidin-3-yl]ethynyl]phenyl] pyridine-2-carboxamide]: the Ki stood at 1.86 nM.

Compound `CN1CC[C@@](O)(C#Cc2cccc(-c3cc(NC4COC4)cc(C(N)=O)n3)c2)C1=O` [Example 163, 6-[3-[2-[(3R)-3-hydroxy-1-methyl-2-oxo-pyrrolidin-3-yl]ethynyl]phenyl]-4-(oxetan-3-ylamino)pyridine-2-carboxamide] had an inhibition constant Ki of 0.21 nM.

The compound `CC(=O)Nc1cc(C(N)=O)nc(-c2cccc(C#C[C@]3(O)CCN(C)C3=O)c2)c1` [Example 175, 4-acetamido-6-[3-[2-[(3R)-3-hydroxy-1-methyl-2-oxo-pyrrolidin-3-yl]ethynyl]phenyl] pyridine-2-carboxamide] came in with an inhibitory constant (Ki) of 0.08 nM.

Consider `CN1CC[C@@](O)(C#Cc2cccc(-c3cc(O)cc(C(N)=O)n3)c2)C1=O` [Example 176, 4-hydroxy-6-[3-[2-[(3R)-3-hydroxy-1-methyl-2-oxo-pyrrolidin-3-yl]ethynyl]phenyl] pyridine-2-carboxamide], for which affinity was put at a Ki of 0.96 nM.

Consider `CN1CC[C@@](O)(C#Cc2cc(-c3nc(C(N)=O)cc4c3cnn4C)ccc2F)C1=O` [Example 177, 4-[4-fluoro-3-[2-[(3R)-3-hydroxy-l-methyl-2-oxo-pyrrolidin-3-yl]ethynyl]phenyl]-1-methyl-pyrazolo [4,3-c]pyridine-6-carboxamide], for which the Ki was < 0.05 nM.

`Cc1c(O)cc(-c2cccc(C#C[C@]3(O)CCN(C)C3=O)c2)nc1C(N)=O` [Example 178, 4-hydroxy-6-[3-[2-[(3R)-3-hydroxy-1-methyl-2-oxo-pyrrolidin-3-yl]ethynyl]phenyl]-3-methyl-pyridine-2-carboxamide] returned an inhibition constant Ki of 2.87 nM.

On to `COc1cc(C(N)=O)nc(-c2cc(C#C[C@]3(O)CCN(C)C3=O)ccc2F)c1` [Example 179, 6-[2-fluoro-5-[2-[(3R)-3-hydroxy-l-methyl-2-oxo-pyrrolidin-3-yl]ethynyl]phenyl]-4-methoxy-pyridine-2-carboxamide], for which the Ki is < 0.05 nM.

For `COc1cc(C(N)=O)nc(-c2ccc(F)c(C#C[C@]3(O)CCN(C)C3=O)c2)c1` [Example 180, 6-[4-fluoro-3-[2-[(3R)-3-hydroxy-1-methyl-2-oxo-pyrrolidin-3-yl]ethynyl]phenyl]-4-methoxy-pyridine-2-carboxamide], the Ki is < 0.05 nM.

In turn, `COc1cc(-c2cccc(C#C[C@]3(O)CCN(C)C3=O)c2)nc(C(N)=O)c1OC` [Example 181, 6-[3-[2-[(3R)-3-hydroxy-l-methyl-2-oxo-pyrrolidin-3-yl]ethynyl]phenyl]-3,4-dimethoxy-pyridine-2-carboxamide] gave a Ki of 3.67 nM.
